From patent publication US20220023293A1, “EZH2- FGFR INHIBITION IN CANCER” (Stichting Het Nederlands Kanker Instituut-Antoni van …, priority 2018, published 2022)

How the values were obtained:
[1] = system: BAP1 deficient mesothelioma cells; test: short term assay, drug response curve (Alamar blue), 384-well; format: cell-based, mouse; details: single agent; BNC versus NC derived early passage cell lines; FIG. 4B, 4C
Procedure: For short term colony formation assay, the mesothelioma cell lines were seeded in 500 cells per well in a 384-well plate. The next day drugs (GSK126, AZD4547, AZD2461, ABT-263) were added in a matrix format at the indicated concentration using HP D300 digital dispenser (HP) and cells were grown in presence of drug(s) or DMSO control for 5 days. Thereafter, 10% v/v Alamar blue was added to the well and incubated at 370 C for 4 hours. The plates were read with Tecan reader. The data were analyzed and plotted for drug response curve.

FGF7, FGF2 and FGFR2 = test: gene expression analysis (RNA sequencing) after EZH2 inhibitor treatment; format: cell-based, mouse; details: GSK126 treated versus DMSO treated Bap1 deficient cells; log 2 expression; FIG. 4E
Procedure: For gene expression analysis, RNA was isolated from tumor tissue with the Qiagen All prep DNA/RNA kit. Quantification and quality assessment for RNA were performed with a Bioanalyzer (RIN >6.5) (Agilent, Santa Clara, Calif., USA).
Sequencing libraries were constructed with a TruSeq mRNA Library Preparation Kit using poly-A-enriched RNA (Illumina, San Diego, Calif., USA). The samples were run on a HiSeq 2500 Illumina sequencer for cluster generation and sequencing.
For RNA sequencing and expression analysis, Illumina TruSeq mRNA libraries were sequenced with 51 base single reads on a HiSeq2000 using V3 chemistry (Illumina Inc., San Diego). The sequence reads were mapped to the mouse genome (mm10), using TopHat (2.0.12). TopHat was run with default. Reads with mapping quality less than 10 and non-primary alignments were discarded. Remaining reads were counted using HTSeq-cout. Statistical analysis of the differential expression of genes was performed using DESeq2. Genes with False Discovery Rate (FDR) for differential expression lower than 0.05 were considered significant. Batch effect within tumor samples from different source was corrected using ComBat with default options through the Bioconductor sva package 3.10.

SMILES | drug response of BAP1 deficient versus proficient mesothelioma cells (dose response curve) [1] | expression of FGF/FGFR pathway genes (FGF7, FGF2, FGFR2) (FGF7, FGF2 and FGFR2)
COc1cc(CCc2cc(NC(=O)c3ccc(N4C[C@@H](C)N[C@@H](C)C4)cc3)n[nH]2)cc(OC)c1 [AZD4547, N-[5-[2-(3,5-dimethoxyphenyl)ethyl]-1H-pyrazol-3-yl]-4-[(3R,5S)-3,5-dimethylpiperazin-1-yl]benzamide] | hypersensitive | 
CC[C@H](C)n1cc(C)c2c(C(=O)NCc3c(C)cc(C)[nH]c3=O)cc(-c3ccc(N4CCNCC4)nc3)cc21 [GSK126, 1-[(2S)-butan-2-yl]-N-[(4,6-dimethyl-2-oxo-1H-pyridin-3-yl)methyl]-3-methyl-6-(6-piperazin-1-ylpyridin-3-yl)indole-4-carboxamide] | hypersensitive | upregulation of FGF/FGFR pathway genes
